From patent US9549911B2, “Ginger metabolites and uses thereof” (North Carolina A&T State University, priority 2012, dated 2017)
Like-named read-outs stand apart in the source and are kept apart here.

Legend:
HCT-116 cells [1] = assay: Western blot analysis of apoptosis markers and p53 (Part 5); assay type: cell-based, human; details: for p53 expression (Western blot): HCT-116 (p53 wild-type), 24 hours, M2, 6S 10, 20 or 40 μM, 8S, M2′, 10S, M2″ 20 μM
HT-29 colon cancer cells = assay: Apoptosis by FACS analysis of propidium iodide-stained cells; assay type: cell-based, human; details: HT-29, 40 μM, 24 hours
Method: (§1) Apoptosis was determined by FACS analysis of propidium iodide (PI)-stained cells. In brief, cells were trypsinized, washed with cold phosphate-buffered saline (PBS), fixed in ice-cold 70% ethanol for 1 hour, and then resuspended in 2 mL PBS supplemented with 10 μL RNase (100 mg/ml) and incubated at 37° C. for 30 min. After incubation, DNA was stained with 1 mg/mL PI in PBS. Cell staining was analyzed using a Cell Lab Quanta™ SC flow cytometer (Beckman Coulter, Danvers, Mass.) and data were processed using FCS Express software (DeNovo Software, Los Angeles, Calif.). The percentage of apoptotic cells in each sample was determined based on the sub G0 peaks detected in monoparametric histograms.

[2] = test system: HCT-116 colon cancer cells; assay: as above; assay type: cell-based, human; details: HCT-116, 40 μM, 24 hours
Method: as §1

[3] = Kinetic study of [6]-shogaol metabolism to M6 in liver microsomes; assay type: in vitro ADME, monkey; details: monkey liver microsomes 0.1 mg/mL, 30 min
Method: (§2) All incubations were performed in triplicate.

[4] = as above; assay type: in vitro ADME, mouse; details: mouse liver microsomes 0.1 mg/mL, 30 min; read-out: Km of M6 formation
Method: as §2

H-1299 cells = assay: TUNEL apoptosis assay (Part 1); assay type: cell-based, human; details: 24 h
Method: (§3) HCT-116 and H-1299 cells were seeded in six-well plates at 1.0×10^5 cells/well and were incubated at 37° C. in a 5% CO2 incubator. After 24 h, fresh media supplemented with DMSO (control), [6]-shogaol (10 or 20 μM), M9 (40 or 80 μM), or M11 (40 or 80 μM) were added to the wells. After 24-h incubation, cells were washed and pretreated for 15 min at room temperature with a solution of 20 μg/ml proteinase K. Cells were then washed twice with PBS pH 7.4 and were fixed for 10 min at room temperature using 10% neutral formaldehyde solution. After two washes in distilled H2O, cells were resuspended in 100 μl of distilled H2O and were applied on silanized microscope slides. Slides were incubated overnight at 37° C. and were washed twice with PBS. Terminal deoxynucleotidyl transferase deoxyuridine triphosphate nick-end labeling (TUNEL) assay was then performed according to the manufacturer's protocol. Cells were observed under 400× power using a Zeiss A1 microscope (Carl Zeiss, Inc., Thornwood, N.Y.).
(§4) Ten fields per slide were evaluated, and TUNEL-positive cells (with brown coloration in the nucleus) were expressed as a percentage of the total number of cells contained in a field. Statistical Analysis. For simple comparisons between two groups, twotailed Student's t test was used. A p value of less than 0.05 was considered statistically significant in all the tests.

HCT-116 cells [5] = assay: TUNEL apoptosis assay (Part 1); assay type: cell-based, human; details: 24 h
Method: as §3, §4

[6] = test system: human lung cancer cells H-1299; assay: Cell Death Detection ELISA apoptosis induction (Part 3); assay type: cell-based; details: H-1299, 10 μM, 24 hours
Method: (§5) Human colon cancer cells HCT-116 and human lung cancer cells H-1299 were plated in 96-well plates at a density of 5000 cells/well and allowed to attach overnight at 37° C. M14, M15, or [6]-shogaol in DMSO, or DMSO control, diluted in media, were added to cells and incubated for an additional 24 hours at 37° C. After 24 hours, media containing compound was removed and cells were lysed in their respective wells with reagents from a Cell Death Detection ELISA^PLUS kit from Roche Applied Science (Mannheim, Germany). Samples were harvested after cell lysates were spun down at 300 g for 10 minutes. To streptavidin coated microplates, 20 μL samples were added, and mixed with 80 μL Immunoreagent, which consisted of anti-histone-biotin, and anti-DNA-POD, and incubated with gentle shaking for 2 hours at room temperature. After incubation, Immunoreagent was removed and samples were washed 3 times with 250 μL incubation buffer. Substrate solution, ABTS, was added to each well and color was developed for 15 minutes before stopping the reaction with ABTS stop solution and reading absorbance on a microplate reader at 430 nm. Experiments were performed in triplicate and the average is given in comparison to DMSO control with standard deviation.

[7] = test system: human colon cancer cells HCT-116; assay: as above; assay type: cell-based; details: HCT-116, 10 μM, 24 hours
Method: as §5

[8] = test system: human lung cancer cells H-1299; assay: MTT growth inhibition by M14 and M15 (Part 3); assay type: cell-based; details: H-1299, 24 hours, 0 to 80 μM; read-out: IC50 (cell viability, MTT)
Method: (§6) Cell growth inhibition was determined by a MTT colorimetric assay. […] The reading reflected the number of viable cells and was expressed as a percentage of viable cells in the control. Both HCT-116 and H-1299 cells were cultured in McCoy's 5A medium. All of the above media were supplemented with 10% fetal bovine serum, 1% penicillin/streptomycin, and 1% glutamine, and the cells were kept in a 37° C. incubator with 95% humidity and 5% CO2.

[9] = test system: human colon cancer cells HCT-116; assay: MTT growth inhibition by M14 and M15 (Part 3); assay type: cell-based; details: HCT-116, 24 hours, 0 to 80 μM; read-out: IC50 (cell viability, MTT)
Method: as §6

[10] = Kinetic study of [6]-shogaol metabolism to M6 in liver microsomes; assay type: in vitro ADME, rat; details: rat liver microsomes 0.1 mg/mL, 30 min
Method: as §2

Km ([3]; read-out: Km of M6 formation)	Km [4]	IC50 [8]	IC50 [9]	Structure (SMILES)	p53 expression (Western blot) (HCT-116 cells [1])	Bcl-2 levels (Western blot, vs DMSO) (HCT-116 cells [1]; HCT-116, 40 μM)	PUMA induction (Western blot, vs DMSO) (HCT-116 cells [1]; HCT-116, 40 μM)	XIAP expression (Western blot, vs DMSO) (HCT-116 cells [1]; HCT-116, 40 μM)	cleaved caspase 9 (Western blot, vs DMSO) (HCT-116 cells [1]; HCT-116, 40 μM)	cytochrome c release (Western blot, vs DMSO) (HCT-116 cells [1]; HCT-116, 40 μM)	apoptotic cells (FACS, PI) (HT-29 colon cancer cells)	apoptotic cells (FACS, PI) [2]	Vmax of M6 formation [3]	apoptotic cells (TUNEL) (H-1299 cells; H-1299, 10 μM)	apoptotic cells (TUNEL) (H-1299 cells; H-1299, 20 μM)	apoptotic cells (TUNEL) (HCT-116 cells [5]; HCT-116, 10 μM)	apoptotic cells (TUNEL) (HCT-116 cells [5]; HCT-116, 20 μM)	induction of apoptosis compared to DMSO control [6]	induction of apoptosis compared to DMSO control [7]	Vmax of M6 formation [10]
				CCCCCC(CC(=O)CCc1ccc(O)c(OC)c1)SC[C@H](N)C(=O)O (stereo partly drawn) [M2, 5-cysteinyl-[6]-shogaol]	dose-dependent up-regulation of p53	undetectable	~17 fold	undetectable	~4.6 fold	~2.2 fold	14.38%	26.34%								
424 µM	75.7 µM	17.3 µM	19.9 µM	CCCCC/C=C/C(=O)CCc1ccc(O)c(OC)c1 [[6]-shogaol, reference compound]	dose-dependent up-regulation of p53								2.99+/−0.28 nanomoles per minute per milli	5.2%	31.6%	10.3%	31.2%	~2 fold	1 fold	8.19+/−0.48 nanomoles per minute per milli
